The results in this text go back to PubChem BioAssay (NCI).

Several values for one entry are separate records, joined by “and”; a condition that tells them apart may be missing. Equal values may be shown once.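 1) Cells in 96-well plates. 2) Compound, 48 h, 5 concentrations. 3) Linear interpolation between surrounding doses. 4) Unreached endpoint = highest concentration. Abbreviation: GI50, concentration required for 50% inhibition of growth. At the TGI there is no net growth.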

Test systems include HOP-92 NSCLC; SK-MEL-28 melanoma; HCC-2998 colon; DU-145 prostate; SW-620 colon; T-47D breast; IGROV1 ovarian; A498 renal; CAKI-1 renal; OVCAR-3 ovarian.
Assay in all cases: inhibition of tumour cell growth, NCI panel, 48 h

Regarding `Cc1nc2n(c(=O)c1CCN1CCC(c3noc4cc(F)ccc34)CC1)CCCC2`, the GI50 in the test with HOP-92 NSCLC, in the test on SK-MEL-28 melanoma, in the test with HCC-2998 colon, in the test on DU-145 prostate, in the test with SW-620 colon and in the test with T-47D breast was above 50 µM throughout. Further, the GI50 in the test with IGROV1 ovarian, with A498 renal, in the test on CAKI-1 renal and with OVCAR-3 ovarian was above 50 µM each time. Besides, the TGI in the test with HOP-92 NSCLC, with SK-MEL-28 melanoma, in the test with HCC-2998 colon, in the test on DU-145 prostate, with SW-620 colon and in the test on T-47D breast was above 50 µM throughout. For the same compound, the TGI in the test with IGROV1 ovarian, with A498 renal, in the test on CAKI-1 renal and with OVCAR-3 ovarian was above 50 µM each time.
In the case of `COc1ccc2c(c1)[n+](=O)c(C(=O)/C=C/c1cc(OC)c(OC)c(OC)c1)c(C)n2[O-]`, the GI50 with HOP-92 NSCLC is 12.3 µM; with SK-MEL-28 melanoma, above 100 µM; with HCC-2998 colon, 42.9 µM; in the test with DU-145 prostate it was 10.7 µM; in the test on SW-620 colon, above 100 µM; with T-47D breast it was 22.8 µM. Besides, the GI50 was 20.7 µM with IGROV1 ovarian, 16.4 µM with A498 renal, 26.9 µM in the test with CAKI-1 renal and 27.3 µM in the test with OVCAR-3 ovarian. For the same compound, the TGI in the test with HOP-92 NSCLC is 30.8 µM; in the test with SK-MEL-28 melanoma, above 100 µM; with HCC-2998 colon, above 100 µM; with DU-145 prostate, 25.4 µM; in the test on SW-620 colon, above 100 µM; in the test on T-47D breast, above 100 µM. For the same compound, the TGI is 42 µM with IGROV1 ovarian, 57.5 µM in the test on A498 renal, above 100 µM with CAKI-1 renal and above 100 µM with OVCAR-3 ovarian.
Consider `Cc1c(NC(=O)OC[C@@H]2COCCN2)cn2ncnc(Nc3ccc4c(cnn4Cc4cccc(F)c4)c3)c12`, for which the GI50 is 1.45 µM and 0.991 µM in the test on HOP-92 NSCLC; > 10 µM and 7.04 µM with SK-MEL-28 melanoma; > 10 µM and 12 µM in the test with HCC-2998 colon; 9.5 µM and 4.26 µM with DU-145 prostate; > 10 µM and 10.5 µM in the test on SW-620 colon; 1.36 µM and 1.14 µM in the test with T-47D breast. The GI50 was 0.855 µM and 2.16 µM in the test with IGROV1 ovarian; 0.532 µM and 1.02 µM with A498 renal; > 10 µM and 1.36 µM in the test on CAKI-1 renal; > 10 µM and 6.66 µM with OVCAR-3 ovarian. Also, the TGI with HOP-92 NSCLC was > 10 µM and 10.7 µM; in the test on SK-MEL-28 melanoma, > 10 µM and 21.4 µM; in the test with HCC-2998 colon, > 10 µM and 25 µM; in the test with DU-145 prostate, > 10 µM and 20.6 µM; with SW-620 colon, > 10 µM and 24.6 µM; in the test with T-47D breast, 9.52 µM and 10.3 µM. Moreover, the TGI was > 10 µM and 19.9 µM with IGROV1 ovarian; > 10 µM and 15.5 µM in the test on A498 renal; > 10 µM and 15.5 µM in the test on CAKI-1 renal; > 10 µM and 21.5 µM with OVCAR-3 ovarian.
Regarding `COc1ccc(-c2csc(-c3cc(Cl)cc(Cl)c3Cl)n2)cc1`, the GI50 in the test on HOP-92 NSCLC was 27.6 µM; in the test with SK-MEL-28 melanoma, above 100 µM; in the test with HCC-2998 colon, 44.6 µM; in the test with DU-145 prostate, 63.9 µM; in the test on SW-620 colon it was 42.4 µM; in the test on T-47D breast it was 40.3 µM. Besides, the GI50 is 56.8 µM in the test with IGROV1 ovarian, above 100 µM in the test on A498 renal, above 100 µM with CAKI-1 renal and 86.8 µM in the test with OVCAR-3 ovarian. Further, the TGI in the test with HOP-92 NSCLC, in the test on SK-MEL-28 melanoma, with HCC-2998 colon, in the test on DU-145 prostate, with SW-620 colon and with T-47D breast was above 100 µM in each case. Moreover, the TGI with IGROV1 ovarian, with A498 renal, in the test with CAKI-1 renal and with OVCAR-3 ovarian was above 100 µM throughout.
`CS(=O)(=O)CCNCc1ccc(-c2ccc3ncnc(Nc4ccc(OCc5ccccc5)c(Cl)c4)c3c2)o1`: the GI50 in the test with HOP-92 NSCLC was 3.06 µM; in the test with SK-MEL-28 melanoma, 3.85 µM; with HCC-2998 colon, 4.27 µM; with DU-145 prostate, 7.91 µM; in the test with SW-620 colon, 4.49 µM; in the test with T-47D breast it was 1.1 µM. Also, the GI50 in the test on IGROV1 ovarian was 2.8 µM; in the test on A498 renal it was 1.56 µM; with CAKI-1 renal, 0.41 µM; in the test on OVCAR-3 ovarian, 6.54 µM. In addition, the TGI in the test with HOP-92 NSCLC is 11.3 µM; with SK-MEL-28 melanoma it was 7.49 µM; in the test on HCC-2998 colon it was 8.37 µM; in the test with DU-145 prostate, above 25 µM; in the test on SW-620 colon, 8.98 µM; with T-47D breast, 12.9 µM. Also, the TGI was above 21.4 µM with IGROV1 ovarian, 9.33 µM with A498 renal, above 21.8 µM in the test on CAKI-1 renal and above 25 µM in the test with OVCAR-3 ovarian.
On to `CCOC(=O)c1cc2c(n1Cc1ccccc1)-c1oncc1CC2`, for which the GI50 is 5.24 µM in the test on HOP-92 NSCLC; 52.4 µM in the test on SK-MEL-28 melanoma; 7.87 µM in the test with HCC-2998 colon; 11.4 µM with DU-145 prostate; 3.48 µM in the test on SW-620 colon; 4.66 µM in the test on T-47D breast. Besides, the GI50 in the test on IGROV1 ovarian is 4.98 µM; in the test on A498 renal, 1.55 µM; in the test with CAKI-1 renal, 3.24 µM; in the test on OVCAR-3 ovarian, 3.06 µM. For the same compound, the TGI with HOP-92 NSCLC was 42.7 µM; with SK-MEL-28 melanoma it was above 100 µM; with HCC-2998 colon it was 37.1 µM; in the test with DU-145 prostate, 44 µM; in the test with SW-620 colon it was above 100 µM; in the test on T-47D breast, 32 µM. The TGI in the test on IGROV1 ovarian stood at 60.1 µM; in the test with A498 renal, 7.5 µM; in the test on CAKI-1 renal, 18.8 µM; with OVCAR-3 ovarian it was 10.5 µM.
Consider `Cc1cc(C)nc(SC2=C(Nc3cccc(Cl)c3C)C(=O)N(Cc3ccccc3)C2=O)n1`, for which the GI50 in the test with HOP-92 NSCLC, with SK-MEL-28 melanoma, in the test on HCC-2998 colon, in the test with DU-145 prostate, with SW-620 colon and in the test on T-47D breast was above 160 µM throughout. Besides, the GI50 with IGROV1 ovarian, with A498 renal, with CAKI-1 renal and in the test with OVCAR-3 ovarian was above 160 µM each time. Also, the TGI with HOP-92 NSCLC, in the test with SK-MEL-28 melanoma, with HCC-2998 colon, in the test with DU-145 prostate, in the test on SW-620 colon and with T-47D breast was above 160 µM each time. The TGI with IGROV1 ovarian, in the test on A498 renal, in the test on CAKI-1 renal and in the test with OVCAR-3 ovarian was above 160 µM throughout.
As for `COc1cccc2[nH]c(-c3ccccn3)nc12`, the TGI with HOP-92 NSCLC, with SK-MEL-28 melanoma, in the test on HCC-2998 colon, in the test with DU-145 prostate, with SW-620 colon and with T-47D breast was above 100 µM throughout. Besides, the TGI in the test with IGROV1 ovarian, with A498 renal, with CAKI-1 renal and in the test on OVCAR-3 ovarian was above 100 µM throughout.
Consider `COc1ccc(-c2c(-c3cc(OC)c4c(c3)OCO4)noc2N)cc1`, for which the GI50 is 3.72 µM with HOP-92 NSCLC; 0.872 µM with SK-MEL-28 melanoma; 0.11 µM in the test on HCC-2998 colon; 0.041 µM with DU-145 prostate; 0.0289 µM in the test on SW-620 colon; 0.0422 µM in the test with T-47D breast. The GI50 with IGROV1 ovarian is 0.093 µM; in the test with A498 renal, 0.0268 µM; in the test with CAKI-1 renal it was 0.0424 µM; with OVCAR-3 ovarian, 0.0203 µM. Also, the TGI with HOP-92 NSCLC was 35.8 µM; with SK-MEL-28 melanoma, 33.4 µM; in the test on HCC-2998 colon, 18.3 µM; in the test with DU-145 prostate it was 1.97 µM; with SW-620 colon it was above 100 µM; in the test with T-47D breast, 47.1 µM. Further, the TGI in the test on IGROV1 ovarian was above 100 µM; in the test with A498 renal, 0.342 µM; in the test with CAKI-1 renal, 57.2 µM; with OVCAR-3 ovarian it was 0.0483 µM.
On to `O=C(c1ccccc1)c1nc2ccc(C(F)(F)F)cc2[n+]([O-])c1C(F)(F)F`, for which the GI50 in the test with HOP-92 NSCLC is 15.1 µM; in the test on SK-MEL-28 melanoma it was 58.8 µM; in the test with HCC-2998 colon it was 30.1 µM; in the test with DU-145 prostate, 71.9 µM; in the test with SW-620 colon it was 47.5 µM; with T-47D breast, 20.4 µM. In addition, the GI50 in the test with IGROV1 ovarian was 16.4 µM; in the test on A498 renal, 13.2 µM; in the test on CAKI-1 renal, 30.4 µM; in the test with OVCAR-3 ovarian it was 24.2 µM. For the same compound, the TGI in the test on HOP-92 NSCLC was 78.5 µM; in the test with SK-MEL-28 melanoma, above 100 µM; in the test with HCC-2998 colon it was above 100 µM; with DU-145 prostate it was above 100 µM; with SW-620 colon, above 100 µM; with T-47D breast it was above 100 µM. Moreover, the TGI in the test with IGROV1 ovarian was 52.2 µM; in the test with A498 renal, 45.2 µM; in the test on CAKI-1 renal it was above 100 µM; with OVCAR-3 ovarian, above 100 µM.
On to `O=[N+]([O-])c1ccc(Sc2c3ccccc3nc3ccccc23)nc1`, for which the TGI with HOP-92 NSCLC was 6.79 µM; with SK-MEL-28 melanoma it was 15.6 µM; with HCC-2998 colon it was 32.1 µM; in the test on DU-145 prostate, 14.3 µM; in the test on SW-620 colon it was 4.79 µM; with T-47D breast, 6.52 µM. The TGI came to 30.6 µM in the test on IGROV1 ovarian, 32.8 µM in the test with A498 renal, 11.8 µM in the test on CAKI-1 renal and 11.2 µM in the test with OVCAR-3 ovarian.
Take `O=C1/C(=C/c2ccccc2)CN(C(=O)OCc2ccccc2)C/C1=C\c1ccccc1`: the TGI is above 100 µM with HOP-92 NSCLC; 32.8 µM with SK-MEL-28 melanoma; 18.3 µM in the test with HCC-2998 colon; above 100 µM with DU-145 prostate; 3.72 µM and 15.5 µM in the test on SW-620 colon; above 100 µM in the test on T-47D breast. For the same compound, the TGI in the test on IGROV1 ovarian is 23.8 µM; in the test with A498 renal, above 31.6 µM; with CAKI-1 renal, above 31.6 µM; in the test with OVCAR-3 ovarian, 10 µM. The GI50 in the test with SW-620 colon was 1.44 µM.
